Data as given in patent US5663172A, “Preventive agent for platelet aggregation” (Nippon Soda Co., Ltd., priority 1992, dated 1997).
Where two headings read alike, the source gives them in different places.

Columns and labels:
[1] = tested on: Left Cardiac Ventricle (dp/dt max), heart rate, blood pressure; test: Cardiotonic effect in anesthetized Beagle dogs (dp/dt max, heart rate, blood pressure); assay type: in vivo; settings: for ED50: Canis lupus familiaris, cumulative 0.001 to 0.3 mg/0.1 ml/Kg, read-out: ED50 for dp/dt max in Left Cardiac Ventricle (dose attaining 50% increase)
Method: Male and female Beagle dogs in a weight range of from 10 to 15 Kg were anesthetized to provide them for the test. The dogs were anesthetized by intravenous injection with sodium pentobarbital at a dose of […], and the anesthetized condition was maintained by subsequent intravenous injection with sodium pentobarbital at a dose of 4 mg/Kg/hr. A cannula for drip infusion either of physiological saline solution or anesthetic injection was inserted into a femoral vein, and a cannula for measuring arterial blood pressure was inserted into a femoral artery via a pressure transducer. Heart rate was recorded by conducting R-wave of the electrocardiogram (ECG) to a heart beat counter. Secondary induction from electrocardiogram was measured via a bioelectricity-adapted amplifier. Internal pressure of left cardiac ventricle was measured by inserting a catheter-type pressure transducer from a left carotid into left cardiac ventricle. Differential values by time of the internal pressure in left cardiac ventricle (dp/dt max) were measured by conducting the internal pressure in left cardiac ventricle to a derivative amplifier. The test compound was cummulatively administrated at a rate of from 0.001 to 0.3 mg/0.1 ml/Kg though a cannula inserted into a femoral vein. Based on a dose-response curve obtained, ED50, a dose attaining 50% increase of the dp/dt max in left cardiac ventricle, was determined.

Mice = test: Preventive effect on thrombus-causing death (collagen + epinephylline i.v. in mice); assay type: in vivo; settings: for ED50: Mus musculus, po, 0.5 h, read-out: ED50 for preventing Thrombus-causing Death
Method: Preventive Effect on Thrombus-causing Death
Mice in a state without feeding for a night were orally administrated with a test compound, and then injected intravenously with collagen in an amount of 400 μg/Kg and epinephylline in an amount of 50 μg/Kg through their tail at a fixed speed in accordance with the method of DiMinno and Silver (DiMinno, G. and Silver, M. J., J. Pharmacol. Exp. Thor., 225, 57-60, 1983). After 30 min., the mice were checked to determine their survival rate and to calculate EC50, a dose attaining 50% prevention of the death of the mice. The collagen and epinephylline were used in a form of a mixed solution prepared with SKF buffer solution and saline, respectively. Test compounds were administrated to mice after preparing each suspensions of the compounds in 1% aqueous solution of gum arabic.

[2] = tested on: platelet aggregation (rabbit platelet rich plasma); test: Preventive effect on platelet aggregation in vitro (aggregometer; rabbit platelet rich plasma; ADP or collagen induced); assay type: cell-based, rabbits; settings: for EC50: Oryctolagus cuniculus, Platelet, rabbit PRP
Method: Preventive Effect on Platelet Aggregation The preventive effect on platelet aggregation of the compounds and the complexes of the present invention was evaluated in vitro based on the preventive effect on the platelet aggregation induced by adenosine diphosphate (ADP) and collagen, which is determined by using an aggregometer, Hematracer PAT-606 produced by Nicho Bioscience Co., Ltd. Blood collected from rabbits containing 0.38% citric acid was centrifuged at 1100 rpm for 15 min. to obtain platelet rich plasm (PRP). The PRP obtained was then centrifuged at 3500 rpm for 10 min., and the supernatant obtained was provided as platelet poor plasma (PPP). PRP was diluted with PPP to adjust the concentration of platelets in PRP to a range of from 2×10^8 /ml to 5×10^8 ml. .left brkt-top.Either ADP at the final concentration of 10 μM or collagen at the final concentration of 20 μg/ml, which was prepared with SKF buffer solution (Collagen reagent Horm, Hormon Chemie) was used for the induction of platelet aggregation. .right brkt-bot. Test compound was dissolved into dimethyl sulfoxide (DMSO), then 0.5 ml of PRP prepared as described above was added to 0.5 μl of the solution, then mixed for about 3 min. Then, 0.2 ml portion was taken out of the mixture, and either ADP solution or collagen solution in an amount of 22 μl was added thereto to proceed to the measurement of platelet aggregation for 10 min. by using an aggregometer. The preventive effect on platelet aggregation was determined in the prevention rate (%) in respect to the aggregation rate in the check plot. The rate of prevention onto platelet aggregation was calculated according to the following equation. Platelet Aggregation Prevention Rate (%)=(Maximum Aggregation Rate(%) of Platelet when only DMSO is added-Maximum Aggregation Rate(%) of Platelet when Test Compound and DMSO are added).div.Maximum Aggregation Rate(%) of Platelet when only DMSO is added Based on the dose-response curve obtained according to the equation described above, EC50, a dose attaining 50% prevention of platelet aggregation, was determined.

[3] = biological target: T1, Cyclic guanosine monophosphate inhibiting-type cyclic adenosine monophosphate phosphodiesterase (cAMP-PDE) (Canis lupus familiaris, UniProt A0A8I3NYE0); test: Inhibitory effect on phosphodiesterase (cGMP inhibiting-type cAMP-PDE from canine platelets); assay type: biochemical; settings: for IC50: canine platelets, 1 μM [3H]-cAMP
T1 construct: derived from canine platelets was prepared according to the method of Thompson et. al; from tissue; host or cells: canine platelets (DEAE-cellulose fraction)
T1 sequence (A0A8I3NYE0 1-1135): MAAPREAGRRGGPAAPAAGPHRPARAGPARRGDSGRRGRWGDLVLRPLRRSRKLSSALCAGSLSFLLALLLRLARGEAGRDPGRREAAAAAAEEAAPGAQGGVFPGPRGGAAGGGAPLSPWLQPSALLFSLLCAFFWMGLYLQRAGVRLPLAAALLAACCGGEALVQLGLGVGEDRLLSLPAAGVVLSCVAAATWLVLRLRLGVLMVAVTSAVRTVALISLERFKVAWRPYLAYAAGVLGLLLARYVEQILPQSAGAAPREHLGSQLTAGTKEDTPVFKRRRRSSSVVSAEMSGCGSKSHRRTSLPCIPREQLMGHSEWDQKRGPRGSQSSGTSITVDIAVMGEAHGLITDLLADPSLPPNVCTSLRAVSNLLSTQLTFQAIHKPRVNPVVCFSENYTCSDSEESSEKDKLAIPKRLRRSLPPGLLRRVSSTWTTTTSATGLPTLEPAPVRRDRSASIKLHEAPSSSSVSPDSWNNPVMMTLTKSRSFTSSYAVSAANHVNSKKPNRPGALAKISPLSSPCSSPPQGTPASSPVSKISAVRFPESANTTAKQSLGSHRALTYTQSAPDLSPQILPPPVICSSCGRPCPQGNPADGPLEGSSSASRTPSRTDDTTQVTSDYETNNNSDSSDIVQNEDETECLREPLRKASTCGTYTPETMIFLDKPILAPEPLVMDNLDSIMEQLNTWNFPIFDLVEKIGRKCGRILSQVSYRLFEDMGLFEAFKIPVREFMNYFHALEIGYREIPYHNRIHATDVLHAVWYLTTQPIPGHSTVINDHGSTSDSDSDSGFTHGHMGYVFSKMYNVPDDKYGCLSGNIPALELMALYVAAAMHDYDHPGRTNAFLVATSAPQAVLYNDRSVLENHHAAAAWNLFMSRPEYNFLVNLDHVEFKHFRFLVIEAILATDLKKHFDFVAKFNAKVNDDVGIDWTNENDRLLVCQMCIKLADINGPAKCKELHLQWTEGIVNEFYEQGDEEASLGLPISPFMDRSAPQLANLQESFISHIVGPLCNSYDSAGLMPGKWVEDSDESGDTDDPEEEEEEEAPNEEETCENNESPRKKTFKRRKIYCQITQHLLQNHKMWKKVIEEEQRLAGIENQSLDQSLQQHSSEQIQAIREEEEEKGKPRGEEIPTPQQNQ

[4] = tested on: Left Cardiac Ventricle (dp/dt max), heart rate, blood pressure; test: Cardiotonic effect in anesthetized Beagle dogs (dp/dt max, heart rate, blood pressure); assay type: in vivo; settings: i.v. at 0.3 mg/kg (footnote *)
[5] = ADP at final concentration 10 μM, read-out: EC50 for Platelet Aggregation Prevention, ADP
[6] = collagen at final concentration 20 μg/ml, read-out: EC50 for Platelet Aggregation Prevention, Collagen
[7] = i.v., anesthetized Beagle dogs, dose not stated

O=C1CCc2cc(OCCCCc3nnnn3C3CCCCC3)ccc2N1 [Cilostazol, reference compound]
ED50 ([1]; iv, anesthetized Beagle dogs): 0.2 mg/kg
% Change in Blood pressure ([1]; dog, in vivo, iv): -2.1%
% Change in Heart Rate ([1]; dog, in vivo, iv): 15%
ED50 (Mice): 300 mg/kg
EC50 [2, 5]: 10.2 µM
EC50 [2, 6]: 4.3 µM
IC50 [3]: 0.6 µM

CCCC1=C(Nc2ccc(C3=NNC(=O)CC3)cc2)CCC1=O [compound 3]
ED50 ([1]; iv, anesthetized Beagle dogs): 0.1 mg/kg
% Change in Blood pressure [1, 7]: -10.5%
% Change in Heart Rate [1, 7]: 7.5%
ED50 (Mice): 6.8 mg/kg
EC50 [2, 5]: 22.8 µM
EC50 [2, 6]: 12.9 µM
IC50 [3]: 0.37 µM

CCCC1=C(Nc2ccc(C3=NNC(=O)CC3C)cc2)CCCC1=O (stereo not drawn) [Compound No. 2, 4,5-dihydro-5-methyl-6-[4-[(2-propyl-3-oxo-1-cyclohexenyl)amino]phenyl]-3(2H)-pyridazinone]
ED50 ([1]; iv, anesthetized Beagle dogs): 0.052 mg/kg
% Change in Blood pressure [1, 7]: -10.0%
% Change in Heart Rate [1, 7]: 9.8%
Effect in Test Example 4 (cardiotonic effect) compared with compound No. 2 ([1]; in words): as much as the effects given by the compound No. 2
ED50 (Mice): 1.7 mg/kg
Effect in Test Example 2 (thrombus-causing death) compared with compound No. 2 (Mice; in words): as much as the effects given by the compound No. 2
EC50 [2, 5]: 4.5 µM
EC50 [2, 6]: 3.6 µM
Effect in Test Example 1 (platelet aggregation) compared with compound No. 2 ([2]; in words): as much as the effects given by the compound No. 2
IC50 [3]: 0.088 µM
Effect in Test Example 3 (phosphodiesterase) compared with compound No. 2 ([3]; in words): as much as the effects given by the compound No. 2

CCCC1=C(Nc2ccc(C3=NNC(=O)CC3)cc2)CCCC1=O [Compound No. 1, 4,5-dihydro-6-[4-[(2-propyl-3-oxo-1-cyclohexenyl)amino]phenyl]-3(2H)-pyridazine]
ED50 ([1]; iv, anesthetized Beagle dogs): > 0.3 mg/kg
ED50 (Mice): 5 mg/kg
EC50 [2, 5]: 29.8 µM
EC50 [2, 6]: 9.3 µM
% Change in Blood pressure [4]: -8.6%
% Change in Heart Rate [4]: 5.2%
% Change in dp/dt max in Left Cardiac Ventricle [4]: 32%
IC50 [3]: 0.43 µM
